Data from patent publication US20140302022A1, “2-CARBOXAMIDE CLYCLOAMINO UREA DERIVATIVES FOR USE IN TREATING VEGF-DEPENDENT DISEASES” (priority 2011, published 2014).
Several values for one entry are separate records, joined by “and”; a condition that tells them apart may be missing. Equal values may be shown once.

Assays:
[1] = system: basal induced angiogenesis; assay: In vivo chamber implant angiogenesis assay, base line (no GF stimulation, PBS control chamber); parameters: species or system FVB mice
Procedure: Porous perfluoro-alkoxy-Teflon® chambers containing PBS in 0.5 ml of 0.8% w/v agar (containing heparin, 20 U/mL) were implanted subcutaneously in the flank of FVB mice. Animals were treated orally either with Compound A at 50 mg/kg once a day or vehicle (5 ml/kg) starting 4-6 hours before implantation of the chambers and daily for 3 days. Basal tissue formed around the chamber was carefully removed and the weight and Tie-2 levels were quantified. Animals were sacrificed 4 days after the implantation. Values are mean±SEM. *p<0.05, statistical significance of inhibition. The total number of animals per group is given in brackets.
(§1) Sterile tissue chambers made of perfluoro-alkoxy-Teflon® were filled with 500 μl molten 0.8% w/v agar containing 20 U/mL heparin (Novo Nordisk A/S, Bagsvaerd, Denmark) with or without growth factor (dog VEGF 2 μg/mL or phosphate buffer saline (PBS/O)). The chamber was implanted aseptically under isoflurane anesthesia through a small incision on the back of the animal and the incision was closed by wound clips. Animals were treated orally either with Compound A at 12.5, 25 or 50 mg/kg once a day formulated in a vehicle of NMP/PEG300 (10/90, V/V) or vehicle alone starting 4-6 hours before implantation of the chambers and daily for three days. VEGF induces the growth of vascularized tissue around the chamber. The angiogenic response can be quantified by measuring the weight and Tie-2 levels of the tissue.
(§2) Four days after implantation, animals were sacrificed using CO2. The chambers were recovered from the animal and the vascularized tissue that had formed around each implant was carefully removed and weighed. Tissue samples were homogenized for 30 sec at 24000 rpm (Ultra Turrax T25) after addition of 1 mL of Ripa buffer (Tris-HCl 50 mM, NaCl 120 mM, EDTA 1 mM, EGTA 6 mM, NP-40 1%, Sodium fluoride 20 mM, Pefabloc SC 1 mM, Sodium vanadate 1 mM). The samples were then centrifuged for 1 h at 7000 rpm. The supernatant was filtered using a 0.45 μm syringe filter (Acrodisc® GF, Gelman Sciences, Ann Arbor, Mich., USA) to avoid fat contamination.
Tie-2 is a receptor tyrosine kinase which is specifically expressed on endothelial cells. For Tie-2 level determination, Nunc (Naperville, Ill.) Maxisorp 96-well plates were coated over night at 4° C. with the capture antibody, anti-Tie-2 AB33 (UBI, Hauppauge, N.Y.), with a concentration of 2 μg/mL (100 μL/well). Wells were washed in TPBS (Tween 80 PBS) and blocked by incubating with 3% Top-Block (Juro, Lucerne, Switzerland) for 2 hours at room temperature. […] Tie-2 antibody complexes were detected after incubation with p-nitrophenyl phosphate substrate (Sigma). The absorbance of the spectro-photometric reaction was determined with an ELISA reader at 405 nm. […]
Four days after the subcutaneous implantation of the VEGF containing chambers, VEGF induced the formation of a thick layer of neovascularised tissue (called capsule) that grew around the implant. […] Tissue formation can be quantified by measuring the weight and the angiogenic response can be quantified by measuring the Tie-2 levels of the capsule. An ELISA assay can quantitatively measure endothelial cells in tissue extracts to evaluate the vascularization of the tissue. […]

[2] = system: VEGF-induced vessel leakage; assay: In vivo VEGF induced permeability assay (Miles assay); parameters: species or system FVB mice; conditions: 3, 6.25, 12.5 and 25 mg/kg p.o., 5 hours before VEGF injection in the ear
Procedure: FIG. 3: Effects of Compound A on VEGF induced permeability in vivo. FVB mice pre-treated with Compound A (3, 6.25, 12.5 and 25 mg/kg, p.o., for 5 h) were injected i.v. with Evans blue and challenged 30 minutes later with VEGF injection in the ear. Mice were then sacrificed and VEGF-mediated vessel leakage is quantified by measurement of the area (mm^2) of dye that extravasated at the site of VEGF injection using pixel-based threshold in computer-assisted image analysis software. Values are mean±SEM. *p<0.05, statistical significance of inhibition. The total number of animals per group is given in brackets.
200 μl of Evans blue (0.5%) was injected into the tail vein of female FVB mice. Thirty minutes following administration of the dye, the mice were anaesthesized (3% Isoflurane in O2, Forene®, Abbott AG, Cham, Switzerland) and then placed on an operating field maintained at a temperature of 39° C. Their ears were extended over a steel cone fitted with a double-sided sticker to expose the dorsal surface. […] VEGF-mediated vessel leakage is quantified by measurement of the area (mm^2) of dye that extravasated at the site of VEGF injection using pixel-based threshold in a computer-assisted image analysis software (KS-400 3.0 imaging system, Zeiss, Germany). […]

BN472 tumors [3] = assay: Tumor interstitial fluid pressure (IFP) by radio-telemetry; assay type: in vivo, Brown-Norway (BN) rats
Procedure: FIG. 4: Effects of Compound A on tumor interstitial fluid pressure. (A) Orthotopic BN472 tumor bearing rats containing a pressure sensing catheter inserted in the tumor were treated with Compound A at 25 mg/kg (n=6; initial IFP: 25.4 mmHg±2.8), or with the vehicle control (n=9; 18.2 mmHg±1.5) for 3 consecutive days. The IFP was recorded for 72 h and variations (delta towards initial values) plotted (gray lines: untreated animals; dark line: applied treatment as indicated in the graph). Data presented are means±SEM. (B) Same as in A except that additional animals were treated orally with a lower dose of 12.5 mg/kg Compound A (n=3; initial IFP: 18.8 mmHg±2.3; gray line). Recording was extended for 3 additional days post last treatment to assess recovery patterns. The arrows represent the administration schedule. Gray bars represent night time.
The IFP of BN472 tumors was measured in conscious, freely moving rats maintained in their home cage using an adapted fully implantable miniaturized radio-telemetry system (Data Sciences Int., St. Paul, Minn.) composed of 4 basic components: an implantable transmitter (AM unit, model TLM-PAC10, volume: 1.1 cc, weight: 1.4 g) which continuously senses and transmits information from within the animal, one receiver located under the home cage, a matrix interface for coordination of signals and a computer-based data acquisition system for collection, analysis and storage of data. The body of the transmitter was implanted s.c. under aseptic conditions into the flank of the animal under isofluorane anaesthesia (3% Isoflurane in O2). Briefly, once animals are fully unconscious, they are placed on a heated blanket and the abdominal area is shaved. The ventral surface of the abdomen is then prepared by swabbing the skin with povidone iodine surgical scrub. With the animal supine, a skin incision of approximately 30 mm is made along the midline of the abdomen and the skin separated from the muscle wall building an air pocket. The sterile transmitter is then positioned in this pocket and the sensing catheter tunneled subcutaneously towards the tumor site (lowest mammary fat pad). The sensing pressure catheter was inserted into the body of the tumor (4-5 mm depth) and secured at the site of entry with tissue adhesive (Vetbond; 3M Company). Fluid communication between the tip of the pressure catheter and the tumor was tested by gentle compressing and decompressing the tubing connected to the telemetry transducer using a clamp. […] However, in most of the implanted tumors, intra-tumoral IFP pulse pressure waveform curves could be recorded unstintingly with high resolution confirming even more strongly the adequate sensing catheter placement. The total operation time for the implantation of the telemetry transmitter was about 20 min. Postoperative analgesia was provided using Buprenorphin (Temgesic®, Reckitt and Colman) injection of 0.05 mg/kg s.c. twice, immediately after surgery and 8-12 h later. Following surgery, the unconscious animal is placed on soft material in a clean cage with water ad libitum. An external heat lamp is used to maintain body temperature. The animals were allowed a period of 2 days to recover from surgery before starting acquisition of any physiological data. IFP was recorded continuously in all animals over 24 hours up to 5 days, and analyzed in 1-min cyclic runs for 10 sec, with a 500-Hz sampling rate. Values presented are means over 15 min periods.

[4] = system: angiogenic response induced by VEGF; assay: In vivo chamber implant angiogenesis assay, VEGF-stimulated; parameters: species or system FVB mice
Procedure: Porous perfluoro-alkoxy-Teflon® chambers containing PBS or VEGF (2 μg/mL) in 0.5 ml of 0.8% w/v agar (containing heparin, 20 U/mL) were implanted subcutaneously in the flank of FVB mice. Animals were treated orally either with Compound A at 12.5, 25 and 50 mg/kg once a day or vehicle (5 ml/kg) starting 4-6 hours before implantation of the chambers and daily for 3 days. VEGF induces the growth of vascularized tissue around the chamber. The angiogenic response can be quantified by measuring the weight and Tie-2 levels of the tissue. Animals were sacrificed 4 days after the implantation. Values are mean±SEM. *p<0.05, statistical significance of inhibition. The total number of animals per group is given in brackets.
as §1, §2
Tie-2 is a receptor tyrosine kinase which is specifically expressed on endothelial cells. For Tie-2 level determination, Nunc (Naperville, Ill.) Maxisorp 96-well plates were coated over night at 4° C. with the capture antibody, anti-Tie-2 AB33 (UBI, Hauppauge, N.Y.), with a concentration of 2 μg/mL (100 μL/well). Wells were washed in TPBS (Tween 80 PBS) and blocked by incubating with 3% Top-Block (Juro, Lucerne, Switzerland) for 2 hours at room temperature. 300 μg of protein lysates were added and incubated for 2 hours, and the wells washed three times before addition of a goat anti-mouse Tie-2 antibody (R&D Systems, Minneapolis, Minn.; 0.5 μg/mL) and an alkaline phosphate conjugated anti-goat antibody (Sigma, St. Louis, Mo.; diluted 1:6,000) in TPBS+0.1%Top-Block for 1 hour at room temperature. Tie-2 antibody complexes were detected after incubation with p-nitrophenyl phosphate substrate (Sigma). The absorbance of the spectro-photometric reaction was determined with an ELISA reader at 405 nm. Recombinant human extracellular domain of Tie-2 fused to the constant regions of human IgG1 (sTie-2Fc) dissolved in RIPA buffer was used as standard in a concentration range from 0.1 to 300 ng/well
Four days after the subcutaneous implantation of the VEGF containing chambers, VEGF induced the formation of a thick layer of neovascularised tissue (called capsule) that grew around the implant. PBS containing chambers induced a much thinner layer of tissue with very few blood vessels around control chamber. Tissue formation can be quantified by measuring the weight and the angiogenic response can be quantified by measuring the Tie-2 levels of the capsule. An ELISA assay can quantitatively measure endothelial cells in tissue extracts to evaluate the vascularization of the tissue. […]

BN472 tumors [5] = assay: Efficacy experiment with orthotopic BN472 rat mammary carcinoma model; conditions: qd, p.o.; for T/C (%): 0.5% Methylcellulose suspension
Text: BN472 tumors were established by orthotopic implantation of tumor fragments into the mammary fat pad of BN rats. Female Brown-Norway (BN) rats (obtained from Charles River (France)) weighing 160-180 g (6-7 weeks of age) were used for all experiments. They were identified by tail markings and kept in groups of 3-5 animals under normal conditions with access to food and water ad libitum. Tumor fragments of 25 mm^3 were taken from the cortex region and were transplanted orthotopically under the fat pad of the fourth left mammary gland of the recipients. For efficacy experiments, treatments were always initiated when the mean tumor volume in each group reached 400-500 mm^3.

[6] = 50 mg/kg p.o. once a day, exp. 1, mean ± SEM
[7] = 50 mg/kg p.o. once a day, exp. 2, mean ± SEM
[8] = 50 mg/kg, chamber without growth factor
[9] = 12.5 mg/kg p.o. once a day, exp. 2, mean ± SEM
[10] = 25 mg/kg p.o. once a day, exp. 2, mean ± SEM

Cc1nc(NC(=O)N2CCC[C@H]2C(N)=O)sc1-c1ccnc(C(C)(C)C(F)(F)F)c1 [Compound A, (S)-Pyrrolidine-1,2-dicarboxylic acid 2-amide 1-({4-methyl-5-[2-(2,2,2-trifluoro-1,1-dimethyl-ethyl)-pyridin-4-yl]-thiazol-2-yl}-amide)]
% inhibition Base line (no GF stimulation), Capsule weight [1, 6]: 14 ± 11 (2) % | % inhibition Base line (no GF stimulation), Capsule weight [1, 7]: 12 ± 10 (3) % | % inhibition Base line (no GF stimulation), Total Tie-2 [1, 7]: 29 ± 9 * (3) % | Tie-2 levels, basal induced angiogenesis [1, 8]: significantly reduced | tissue weight, basal induced angiogenesis [1, 8]: did not affect tissue weight | abrogation of VEGF-induced Evans blue dye extravasation [2]: up to 90% | IFP pattern over three days of treatment compared with 25 mg/kg (BN472 tumors [3]; 12.5 mg/kg): very similar pattern | time post last treatment at which IFP returned to initial values (BN472 tumors [3]; 12.5 mg/kg): ≤ 60 h | time post last treatment without normalization of IFP diminution (BN472 tumors [3]; 25 mg/kg): > 72 h | reduction in IFP (BN472 tumors [3]; 25 mg/kg, 4 hours post treatment): clear and significant reduction | IFP change at max after first treatment (BN472 tumors [3]; 25 mg/kg, 22 hours post dosage): −25% | IFP inhibition after second treatment (BN472 tumors [3]; 25 mg/kg, second treatment at time point 24 hours): −36% | IFP inhibition after third treatment (BN472 tumors [3]; 25 mg/kg, third treatment, sustained for 48 hours): −43% | % inhibition VEGF-stimulated, Capsule weight ([4]; 12.5 mg/kg p.o. once a day, exp. 1, mean ± SEM): 64 ± 33 (3) % | % inhibition VEGF-stimulated, Capsule weight [4, 9]: 74 ± 24 (4) % | % inhibition VEGF-stimulated, Total Tie-2 [4, 9]: 58 ± 22 (4) % | % inhibition VEGF-stimulated, Capsule weight ([4]; 25 mg/kg p.o. once a day, exp. 1, mean ± SEM): 84 ± 5 * (3) % | % inhibition VEGF-stimulated, Capsule weight [4, 10]: 106 ± 28 * (4) % | % inhibition VEGF-stimulated, Total Tie-2 [4, 10]: 113 ± 38 * (4) % | Tie-2 levels of the capsule, VEGF chamber ([4]; 50 mg/kg given daily): returned to the baseline or even below | % inhibition VEGF-stimulated, Capsule weight [4, 6]: 88 ± 12 * (4) % | % inhibition VEGF-stimulated, Capsule weight [4, 7]: 121 ± 11 * (6) % | % inhibition VEGF-stimulated, Total Tie-2 [4, 7]: 145 ± 9 * (6) % | angiogenic response induced by VEGF (weight and Tie-2 level of the capsule) ([4]; once a day at 12.5, 25 and 50 mg/kg in solution): inhibited significantly | % change of body weight corrected (BN472 tumors [5]; 20 mg/kg): 1.2 ± 0.5% | Mean fold change in tumor growth (BN472 tumors [5]; 20 mg/kg): 4.6 ± 0.8 | Survival (Survivors/total) (BN472 tumors [5]; 20 mg/kg): 5/5 | Δ Body weight (mean g ± SEM) (BN472 tumors [5]; 20 mg/kg): 4.0 ± 1.1 g | Δ tumor volume (mean mm^3 ± SEM) (BN472 tumors [5]; 20 mg/kg): 1725 ± 283 * mm^3 | T/C (%) (BN472 tumors [5]; 20 mg/kg): 36% and 36 * % | % change of body weight corrected (BN472 tumors [5]; 40 mg/kg): −1.8 ± 0.5% | Mean fold change in tumor growth (BN472 tumors [5]; 40 mg/kg): 3.3 ± 0.2 | Survival (Survivors/total) (BN472 tumors [5]; 40 mg/kg): 5/5 | Δ Body weight (mean g ± SEM) (BN472 tumors [5]; 40 mg/kg): -2.5 ± 0.9 g | Δ tumor volume (mean mm^3 ± SEM) (BN472 tumors [5]; 40 mg/kg): 1108 ± 198 * mm^3 | T/C (%) (BN472 tumors [5]; 40 mg/kg): 23% and 23 * %
